Results from patent publication US20210156844A1, “TMEM16A Modulation for Diagnostic or Therapeutic Use in Pulmonary Hypertension (PH)” (Bayer Aktiengesellschaft, priority 2017, published 2021).

Legend:
TMEM16A = target: T1, TMEM16A (Homo sapiens, UniProt Q5XXA6); experiment: Measurement of whole-cell Ca2+-activated Cl- current (IClCa), voltage clamp, primary PASMC; assay type: cell-based; settings: benzbromarone 30 μM; primary PASMC of both donors and IPAH patients
T1 construct: endogenous in cells; host or cells: primary human PASMC from healthy donors and IPAH patients
T1 sequence (Q5XXA6 1-986): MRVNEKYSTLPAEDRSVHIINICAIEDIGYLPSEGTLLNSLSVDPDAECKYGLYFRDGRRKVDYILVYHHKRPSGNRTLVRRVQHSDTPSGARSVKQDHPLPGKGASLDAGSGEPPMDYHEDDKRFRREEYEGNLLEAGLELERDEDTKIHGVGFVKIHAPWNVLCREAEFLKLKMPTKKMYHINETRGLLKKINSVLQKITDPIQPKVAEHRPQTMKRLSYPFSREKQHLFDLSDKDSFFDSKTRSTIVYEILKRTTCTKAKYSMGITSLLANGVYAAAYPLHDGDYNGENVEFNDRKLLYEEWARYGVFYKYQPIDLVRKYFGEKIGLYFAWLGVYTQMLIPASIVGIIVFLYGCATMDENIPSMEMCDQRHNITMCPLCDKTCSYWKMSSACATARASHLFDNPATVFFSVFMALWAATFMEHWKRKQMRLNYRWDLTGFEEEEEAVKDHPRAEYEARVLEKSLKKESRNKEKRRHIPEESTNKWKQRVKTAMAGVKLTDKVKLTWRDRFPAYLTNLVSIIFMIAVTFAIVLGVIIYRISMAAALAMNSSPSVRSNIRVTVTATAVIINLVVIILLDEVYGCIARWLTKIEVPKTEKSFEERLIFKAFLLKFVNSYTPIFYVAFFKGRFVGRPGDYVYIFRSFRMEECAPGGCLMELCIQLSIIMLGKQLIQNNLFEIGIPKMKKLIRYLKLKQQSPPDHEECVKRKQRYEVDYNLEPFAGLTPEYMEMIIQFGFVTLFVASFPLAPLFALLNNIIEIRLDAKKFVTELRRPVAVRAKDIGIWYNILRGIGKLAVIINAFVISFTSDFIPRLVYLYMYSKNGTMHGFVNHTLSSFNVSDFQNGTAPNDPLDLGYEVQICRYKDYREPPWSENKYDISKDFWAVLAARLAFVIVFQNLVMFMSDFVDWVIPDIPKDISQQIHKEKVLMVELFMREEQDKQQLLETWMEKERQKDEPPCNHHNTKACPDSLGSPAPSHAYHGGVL
Description: For the measurement of whole-cell IClCa, PASMC grown in T-25 tissue culture flasks were freshly harvested with StemPro Accutase (Life Technologies), centrifuged (300 g, 5 min) and resuspended in Complete SMC Medium. PASMC were stored at 4° C. until use and were allowed to attach to glass coverslips for 15-30 min at room temperature before the measurements. Cells were perfused with a bath solution composed of (in mM) NaCl 150, glucose 10, HEPES 10, CaCl2 1, MgCl2 1, pH 7.4 (NaOH). The pipette solution contained (in mM) CsCl 110, TEA-Cl 20, EGTA 5, HEPES 10, Na2ATP 1, CaCl2 4.68, MgCl2 1, pH 7.2 (NaOH). The free Ca^2+ concentration of this solution was 2 μM as calculated with the MaxChelator software. In order to minimize K^+ current contamination of the recordings, after the formation of whole-cell configuration the bath solution was switched to a bath composed of (in mM) NaCl 140, glucose 10, HEPES 10, TEA-Cl 10, CaCl2 1, MgCl2 1, pH 7.4 (NaOH). In order to measure IClCa, the command potential was stepped from a 0 mV holding potential to −40, 0, +40, +80 and +120 mV for 1.5 s, allowing 0.5 s recovery time at the holding potential between each step. The average current measured between 750 and 1500 ms of each voltage step was plotted against the […]. […] Cells from the same batch that were cultured, harvested and recorded under normoxic conditions served as controls.

[1] = tested on: monocrotaline (MCT)-treated rats; experiment: Acute hemodynamic effects of benzbromarone in monocrotaline (MCT)-treated rats; assay type: in vivo, rat; settings: single i.v. bolus of 300 μM
Description: Male Sprague-Dawley rats (body weight: approx. 250 g, Charles River) received a single subcutaneous injection of monocrotaline (MCT, 60 mg/kg, n=16) or vehicle (control group, n=8). Since significant RVSP increase and PA muscularization had been detected as early as 12 days after the injection of MCT58, two weeks after monocrotaline treatment rats were randomly ordered into two groups. Subcutaneous slow-release pellets (Innovative Research of America) that contained either benzbromarone (MCT+BBR, n=8) or vehicle (MCT+Veh, n=8) were implanted. Four weeks after monocrotaline treatment all rats were subjected to echocardiography and in vivo hemodynamic measurements, thereafter they were sacrificed for organ collection. In rats, in vivo hemodynamic measurements were conducted as described above for the mice, with the exception that for the right ventricular and the systolic blood pressures, 2 F Millar Catheters (SPR-513 and SPR-320, respectively) were used. The above described control and MCT+Veh groups were included in this study. Benzbromarone was injected into the left jugular vein as a single bolus ([…], i.v. in 100 μl saline) and pressures were monitored until a maximum effect was observed (approx. 10 minutes).

[2] = tested on: U-46619 preconstricted isolated mouse PA; experiment: Measurement of pulmonary artery tone ex vivo
Description: Pulmonary artery rings were isolated from male C57BL/6J mice (20-25 weeks old, Charles River, Wilmington Mass., USA), as described by Jain et al. (Jain, P P, et al., Int. J. Nanomedicine (2014) 9, 3249-3261). Following stable contraction (approx. 30 minutes post-addition of U-46619, 30 nM), the arteries were subjected to cumulatively increasing concentrations (0.1 to 30 μM) of the TMEM6A blockers T16Ainh-A01 (Tocris) and benzbromarone (Sigma) in order to analyze the concentration-response relationships.

CCc1oc2ccccc2c1C(=O)c1cc(Br)c(O)c(Br)c1 [benzbromarone, (2-Ethyl-3-benzofuranyl)-(3,5-dibrom-4-hydroxyphenyl)ketone]
whole-cell IClCa (TMEM16A): significantly decreased | RVSP ([1]; MCT-treated rats): significant decrease | RVSP in the control animals ([1]; vehicle-treated control rats): without affecting | vasorelaxation of preconstricted PA ([2]; cumulatively increasing concentrations 0.1 to 30 μM, U-46619 30 nM): dose-dependent vasorelaxation | potency compared with T16Ainh-A01 ([2]; ex vivo PA vasodilator response): more potent
